Measurements: patent US20170007615A1, “Antibacterial Compounds” (priority 2014, published 2017)
Values after ≈ are worked out from the molar mass of the structure shown. Where two headings read alike, the source gives them in different places. Marks after values point to notes of the source that are not given here. Positions of bridges follow the written chain, without caps; N, C: chain ends. Non-standard residues stand in square brackets, D forms with d. Residues, ends and D or L forms follow the SMILES beside them. Dab = NCC[C@H](N)C(=O)O

Columns and labels:
[1] = tested on: B. cepacia (ATCC 25416); assay: Antibacterial activity (MIC), alone and with colistin; type: cell-based, Burkholderia cepacia
[2] = tested on: E. coli drug resistant clinical isolates; assay: Antibacterial activity (MIC) against drug resistant clinical isolates, alone and with PMBN; type: cell-based; settings: for MIC: Escherichia coli, read-out: MIC Compound alone
[3] = tested on: P. aeruginosa drug resistant clinical isolates; assay: as above; type: cell-based; settings: for MIC: Pseudomonas aeruginosa, read-out: MIC Compound alone
[4] = tested on: A. baumannii drug resistant clinical isolates; assay: as above; type: cell-based; settings: for MIC: Acinetobacter baumannii, read-out: MIC Compound alone
[5] = tested on: E. cloaceae drug resistant clinical isolates; assay: as above; type: cell-based; settings: for MIC: read-out: MIC Compound alone
[6] = tested on: P. aeruginosa (MMX 1497) colistin-resistant strain; assay: Antibacterial activity (MIC) against colistin-resistant strains, alone and with colistin; type: cell-based
[7] = tested on: K. pneumonia colistin-resistant strains; assay: microbe, parasite or virus in culture; type: cell-based; settings: for MIC: Klebsiella pneumoniae
[8] = tested on: E. coli colistin-resistant strains; assay: microbe, parasite or virus in culture; type: cell-based; settings: for MIC: Escherichia coli
[9] = tested on: A. baumannii colistin-resistant strains; assay: microbe, parasite or virus in culture; type: cell-based; settings: for MIC: Acinetobacter baumannii
[10] = tested on: E. coli (ATCC 25922); settings: for MIC of Compound (μg/ml) in the presence of PMBN (32 μg/ml): (b) No significant effect
[11] = tested on: A. baumannii (ATCC 19606)
[12] = tested on: P. aeruginosa (ATCC 27853)
[13] = tested on: E. cloaceae (ATCC 13047)
[14] = tested on: F. philomiragia (ATCC 25015); settings: Table 9
[15] = tested on: E. coli (ATCC 25922); assay: microbe, parasite or virus in culture; settings: Escherichia coli
[16] = tested on: A. baumannii (ATCC 19606); assay: microbe, parasite or virus in culture; settings: Acinetobacter baumannii, ATCC19606, read-out: MIC Compound alone
[17] = tested on: P. aeruginosa (ATCC 27853); assay: microbe, parasite or virus in culture; settings: Pseudomonas aeruginosa, ATCC27853, read-out: MIC Compound alone
[18] = tested on: E. cloaceae (ATCC 13047); assay: microbe, parasite or virus in culture; settings: Enterobacter cloacae, ATCC13047, read-out: MIC Compound alone
[19] = tested on: F. philomiragia (ATCC 25015); assay: microbe, parasite or virus in culture; settings: Francisella philomiragia, ATCC25015, read-out: MIC Compound alone
[20] = tested on: E. coli (NDM-1; CTX-M15); assay: Septicaemia infection model, survival; settings: two doses

CCNC(=O)Nc1nc2cc(-c3cnc([C@H](C)O)nc3)cc(-c3ccccn3)c2s1 [Example 23 (WO2013/138860), 1-ethyl-3-[5-[2-[(1S)-1-hydroxyethyl]pyrimidin-5-yl]-7-(2-pyridyl)-1,3-benzothiazol-2-yl]urea]
MIC ([1]; Burkholderia cepacia, ATCC25416, read-out: MIC Compound alone): > 64 µg/mL
MIC of Compound (μg/ml) in the presence of colistin (2 μg/ml) ([1]; Table 8, colistin non-inhibitory): 8 µg/mL
MIC of Compound (μg/ml) in the presence of PMBN (128 μg/ml) ([2]; E. coli (MMX 1312)): ≦0.008 μg/ml
MIC of Compound (μg/ml) in the presence of PMBN (128 μg/ml) ([2]; E. coli (MMX 2232)): ≦0.008 μg/ml
MIC ([2]; E. coli (MMX 1312)): > 64 µg/mL
MIC ([2]; E. coli (MMX 2232)): > 64 µg/mL
MIC of Compound (μg/ml) in the presence of PMBN (128 μg/ml) ([3]; P. aeruginosa (MMX3007)): 0.25 µg/mL
MIC of Compound (μg/ml) in the presence of PMBN (128 μg/ml) ([3]; P. aeruginosa (MMX3022)): 0.25 µg/mL
MIC of Compound (μg/ml) in the presence of PMBN (128 μg/ml) ([3]; P. aeruginosa (MMX3025)): 0.12 µg/mL
MIC of Compound (μg/ml) in the presence of PMBN (128 μg/ml) ([3]; P. aeruginosa (NCTC13437)): 0.25 µg/mL
MIC ([3]; NCTC13437, P. aeruginosa (NCTC13437)): > 64 µg/mL
MIC ([3]; P. aeruginosa (MMX3007)): > 64 µg/mL
MIC ([3]; P. aeruginosa (MMX3022)): > 64 µg/mL
MIC ([3]; P. aeruginosa (MMX3025)): > 64 µg/mL
MIC of Compound (μg/ml) in the presence of PMBN (128 μg/ml) ([4]; A. baumannii (MMX 4454)): 0.5 µg/mL
MIC of Compound (μg/ml) in the presence of PMBN (128 μg/ml) ([4]; A. baumannii (MMX 6331)): 0.25 µg/mL
MIC ([4]; A. baumannii (MMX 4454)): 2 µg/mL (≈ 4.76 µM)
MIC ([4]; A. baumannii (MMX 6331)): > 64 µg/mL
MIC of Compound (μg/ml) in the presence of PMBN (128 μg/ml) ([5]; E. cloaceae (MMX 6087)): 2 µg/mL
MIC ([5]; E. cloaceae (MMX 6087)): > 64 µg/mL
MIC of Compound (μg/ml) in the presence of PMBN (128 μg/ml) ([5]; E. cloaceae (MMX 6093)): 0.5 µg/mL
MIC ([5]; E. cloaceae (MMX 6093)): > 16 µg/mL
MIC of Compound (μg/ml) in the presence of PMBN (128 μg/ml) ([5]; E. cloaceae (MMX 6095)): 8 µg/mL
MIC ([5]; E. cloaceae (MMX 6095)): > 64 µg/mL
MIC of Compound (μg/ml) in the presence of PMBN (128 μg/ml) ([5]; E. cloaceae (MMX 6304)): 1 µg/mL
MIC ([5]; E. cloaceae (MMX 6304)): > 16 µg/mL
MIC of Compound (μg/ml) in the presence of colistin (2 μg/ml) [6]: 4 µg/mL
MIC ([6]; Pseudomonas aeruginosa, read-out: MIC Compound alone): > 64 µg/mL
MIC of Compound (μg/ml) in the presence of colistin (2 μg/ml) ([7]; K. pneumonia colistin-resistant strain #1): 0.25 µg/mL
MIC of Compound (μg/ml) in the presence of colistin (2 μg/ml) ([7]; K. pneumonia colistin-resistant strain #2): 0.25 µg/mL
MIC of Compound (μg/ml) in the presence of colistin (2 μg/ml) ([7]; K. pneumonia colistin-resistant strain #3): 0.12 µg/mL
MIC ([7]; read-out: MIC Compound alone, K. pneumonia colistin-resistant strain #1): 1 µg/mL (≈ 2.38 µM)
MIC ([7]; read-out: MIC Compound alone, K. pneumonia colistin-resistant strain #2): 1 µg/mL (≈ 2.38 µM)
MIC ([7]; read-out: MIC Compound alone, K. pneumonia colistin-resistant strain #3): 2 µg/mL (≈ 4.76 µM)
MIC of Compound (μg/ml) in the presence of colistin (2 μg/ml) ([8]; E. coli colistin-resistant strain #1): 2 µg/mL
MIC of Compound (μg/ml) in the presence of colistin (2 μg/ml) ([8]; E. coli colistin-resistant strain #2): 1 µg/mL
MIC of Compound (μg/ml) in the presence of colistin (2 μg/ml) ([8]; E. coli colistin-resistant strain #3): 1 µg/mL
MIC of Compound (μg/ml) in the presence of colistin (2 μg/ml) ([8]; E. coli colistin-resistant strain #26): 1 µg/mL
MIC of Compound (μg/ml) in the presence of colistin (2 μg/ml) ([8]; E. coli colistin-resistant strain #43): 1 µg/mL
MIC ([8]; read-out: MIC Compound alone, E. coli colistin-resistant strain #1): 4 µg/mL (≈ 9.51 µM)
MIC ([8]; read-out: MIC Compound alone, E. coli colistin-resistant strain #2): 4 µg/mL (≈ 9.51 µM)
MIC ([8]; read-out: MIC Compound alone, E. coli colistin-resistant strain #3): 8 µg/mL (≈ 19 µM)
MIC ([8]; read-out: MIC Compound alone, E. coli colistin-resistant strain #26): 8 µg/mL (≈ 19 µM)
MIC ([8]; read-out: MIC Compound alone, E. coli colistin-resistant strain #43): 4 µg/mL (≈ 9.51 µM)
MIC of Compound (μg/ml) in the presence of colistin (2 μg/ml) ([9]; A. baumannii colistin-resistant strain #1): 0.015 µg/mL
MIC of Compound (μg/ml) in the presence of colistin (2 μg/ml) ([9]; A. baumannii colistin-resistant strain #2): 0.03 µg/mL
MIC of Compound (μg/ml) in the presence of colistin (2 μg/ml) ([9]; A. baumannii colistin-resistant strain #3): <=0.008 μg/ml
MIC ([9]; read-out: MIC Compound alone, A. baumannii colistin-resistant strain #1): ≤ 0.03 µg/mL
MIC ([9]; read-out: MIC Compound alone, A. baumannii colistin-resistant strain #2): 4 µg/mL (≈ 9.51 µM)
MIC ([9]; read-out: MIC Compound alone, A. baumannii colistin-resistant strain #3): ≤ 0.03 µg/mL
MIC of Compound (μg/ml) in the presence of PMBN (128 μg/ml) ([10]; Table 1, (b) No effect): 0.06 µg/mL
MIC of Compound (μg/ml) in the presence of Colistin (1 μg/ml) ([10]; Table 2, colistin sub-inhibitory): 1 µg/mL
MIC of Compound (μg/ml) in the presence of PMB (0.5 μg/ml) ([10]; Table 3, PMB sub-inhibitory): 1 µg/mL
MIC of Compound (μg/ml) in the presence of PMBN (32 μg/ml) ([10]; Table 12): 0.12 µg/mL
MIC of Compound (μg/ml) in the presence of PMBN (128 μg/ml) ([11]; Table 4): 0.25 µg/mL
MIC of Compound (μg/ml) in the presence of PMBN (128 μg/ml) ([12]; Table 5): <=0.008 μg/ml
MIC of Compound (μg/ml) in the presence of PMBN (128 μg/ml) ([13]; Table 6): 0.5 µg/mL
MIC Compound alone ([13]; Table 7): >64 µg/mL
MIC of Compound (μg/ml) in the presence of colistin (2 μg/ml) ([13]; Table 7, colistin non-inhibitory): <=0.12 μg/ml
MIC of Compound (μg/ml) in the presence of PMBN (32 μg/ml) [14]: 2 µg/mL
MIC ([15]; ATCC25922, read-out: MIC Compound alone, Table 1): 4 µg/mL (≈ 9.51 µM)
MIC ([15]; ATCC25922, read-out: MIC Compound alone, Table 2): 4 µg/mL (≈ 9.51 µM)
MIC ([15]; ATCC25922, read-out: MIC Compound alone, Table 3): 4 µg/mL (≈ 9.51 µM)
MIC ([15]; ATCC25922, read-out: MIC Compound alone, Table 12): > 2 µg/mL
MIC [16]: 4 µg/mL (≈ 9.51 µM)
MIC [17]: > 64 µg/mL
MIC [18]: > 64 µg/mL
MIC [19]: > 16 µg/mL

CCNC(=O)Nc1nc2cc(-c3cnc([C@@H](C)OP(=O)(O)O)nc3)cc(-c3ccccn3)c2s1 [Example 152 of WO2013/138860, [(1R)-1-[5-[2-(ethylcarbamoylamino)-7-(2-pyridyl)-1,3-benzothiazol-5-yl]pyrimidin-2-yl]ethyl] dihydrogen phosphate]
survival at the end of 5 days ([20]; 100 mg/kg IV alone): No mice survived

CC(C)C[C@@H]1NC(=O)[C@@H](Cc2ccccc2)NC(=O)[C@H](CCN)NC(=O)[C@@H](NC(=O)[C@H](CCN)NC(=O)[C@@H](N)[C@@H](C)O)CCNC(=O)[C@H]([C@@H](C)O)NC(=O)[C@H](CCN)NC(=O)[C@H](CCN)NC1=O [PMBN, Polymyxin B nonapeptide, reference compound] (H-T[Dab][Dab][Dab][dF]L[Dab][Dab]T; lactam 3-C (inferred); N-terminus assumed)
MIC PMBN alone ([10]; ATCC 25922): >128^(a) μg/ml
MIC PMBN alone ([11]; ATCC 19606): >128^(a) μg/ml
MIC PMBN alone ([12]; ATCC 27853): >128^(a) μg/ml
MIC PMBN alone ([13]; ATCC 13047): >128^(a) μg/ml
MIC PMBN alone ([14]; (a) No measurable antibacterial activity): >32^(a) μg/ml
survival at the end of 5 days ([20]; PMBN 50 mg/kg SC alone): No mice survived

colistin [reference compound]
MIC colistin alone ([1]; Table 8, (a) No measurable antibacterial activity): >64^(a) μg/ml
MIC (colistin) ([7]; K. pneumonia strains raised by selection with 2 or 4 μg/mL of colistin on MH agar): ^(a)Raised by selection with 2 or 4 μg/mL of colistin on MH agar: MIC (colistin) = 16-32 μg/mL
MIC (colistin) ([8]; E. coli strains raised by selection with 2 or 4 μg/mL of colistin on MH agar): ^(a)Raised by selection with 2 or 4 μg/mL of colistin on MH agar: MIC (colistin) = 16-32 μg/mL
MIC (colistin) ([9]; A. baumannii strains raised by selection with 2 or 4 μg/mL of colistin on MH agar): ^(a)Raised by selection with 2 or 4 μg/mL of colistin on MH agar: MIC (colistin) = 16-32 μg/mL
MIC colistin alone ([10]; Table 2): 2 µg/mL
MIC Compound alone ([10]; Table 12): 4 µg/mL
MIC of Compound (μg/ml) in the presence of PMBN (32 μg/ml) ([10]; Table 12): 4^(b) μg/ml
MIC colistin alone ([13]; Table 7, (a) No measurable antibacterial activity): >64^(a) μg/ml
